Each compound was assayed on p-IKKa levels in L363 (NIK translocated multiple myeloma) cells (assay: Assay 2: Effect of compounds on p-IKKa levels in L363 (NIK translocated multiple myeloma) cells). Conditions: Homo sapiens, L-363, 6 h, read-out: Assay 2 IC50 (nM), p-IKKa (Ser 176/180) in BAFF stimulated L363 cells with MG132, 6 h; average if tested more than once.
Type: cell-based
In short: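 Read-out is p-IKKa Ser176/180 by AlphaLISA SureFire in lysates. Cells were BAFF-primed (250 ng/ml) overnight or left unstimulated, then exposed 6 h at 37 °C to compound with MG132 (10 μM), 0.3% DMSO. IC50 from sigmoidal curve fit, normalized between stimulated and unstimulated controls.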

Row | Compound | IC50 [nM]
1 | Cc1cnnc(Nc2nccc(-c3cccc(-c4cc([C@]5(O)CCN(C)C5=O)on4)n3)n2)n1 [Example 265, (R)-3-Hydroxy-1-methyl-3-(3-(6-(2-((5-methyl-1,2,4-triazin-3-yl)amino)pyrimidin-4-yl)pyridin-2-yl)isoxazol-5-yl)pyrrolidin-2-one] | > 500
2 | CN1CC[C@@](O)(c2cc(-c3cccc(-c4ccnc(Nc5nc(C6CCOCC6)nn5C)n4)n3)no2)C1=O [Example 266, (R)-3-Hydroxy-1-methyl-3-(3-(6-(2-((1-methyl-3-(tetrahydro-2H-pyran-4-yl)-1H-1,2,4-triazol-5-yl)amino)pyrimidin-4-yl)pyridin-2-yl)isoxazol-5-yl)pyrrolidin-2-one] | > 500
3 | CN1CC[C@@](O)(c2cc(-c3cccc(-c4ccnc(Nc5nnn(C)n5)n4)n3)no2)C1=O [Example 267, (R)-3-Hydroxy-1-methyl-3-(3-(6-(2-((2-methyl-2H-tetrazol-5-yl)amino)pyrimidin-4-yl)pyridin-2-yl)isoxazol-5-yl)pyrrolidin-2-one] | 50 to 500
4 | Cc1ccc(O)c(Nc2nccc(-c3cccc(-c4cc([C@]5(O)CCN(C)C5=O)on4)n3)n2)n1 [Example 268, (R)-3-Hydroxy-3-(3-(6-(2-((3-hydroxy-6-methylpyridin-2-yl)amino)pyrimidin-4-yl)pyridin-2-yl)isoxazol-5-yl)-1-methylpyrrolidin-2-one] | > 500
5 | Cc1c(Nc2nccc(-c3cccc(-c4cc([C@]5(O)CCN(C)C5=O)on4)n3)n2)cnn1CC(C)(C)O [Example 269, (R)-3-Hydroxy-3-(3-(6-(2-((1-(2-hydroxy-2-methylpropyl)-5-methyl-1H-pyrazol-4-yl)amino)pyrimidin-4-yl)pyridin-2-yl)isoxazol-5-yl)-1-methylpyrrolidin-2-one] | < 50
6 | CN1CC[C@@](O)(c2cc(-c3cccc(-c4ccnc(Nc5ccn(CC6CCOCC6)n5)n4)n3)no2)C1=O [Example 270, (R)-3-Hydroxy-1-methyl-3-(3-(6-(2-((1-((tetrahydro-2H-pyran-4-yl)methyl)-1H-pyrazol-3-yl)amino)pyrimidin-4-yl)pyridin-2-yl)isoxazol-5-yl)pyrrolidin-2-one] | < 50
7 | COCc1nc(Nc2nccc(-c3cccc(-c4cc([C@]5(O)CCN(C)C5=O)on4)n3)n2)n(C)n1 [Example 271, (R)-3-Hydroxy-3-(3-(6-(2-((3-(methoxymethyl)-1-methyl-1H-1,2,4-triazol-5-yl)amino)pyrimidin-4-yl)pyridin-2-yl)isoxazol-5-yl)-1-methylpyrrolidin-2-one] | > 500
8 | Cc1ccn2cnnc2c1Nc1nccc(-c2cccc(-c3cc([C@]4(O)CCN(C)C4=O)on3)n2)n1 [Example 273, (R)-3-Hydroxy-1-methyl-3-(3-(6-(2-((7-methyl-[1,2,4]triazolo[4,3-a]pyridin-8-yl)amino)pyrimidin-4-yl)pyridin-2-yl)isoxazol-5-yl)pyrrolidin-2-one] | > 500
9 | CN(C)Cc1ccc(Nc2nccc(-c3cccc(-c4cc([C@]5(O)CCN(C)C5=O)on4)n3)n2)nc1 [Example 274, (R)-3-(3-(6-(2-((5-((Dimethylamino)methyl)pyridin-2-yl)amino)pyrimidin-4-yl)pyridin-2-yl)isoxazol-5-yl)-3-hydroxy-1-methylpyrrolidin-2-one] | 50 to 500
10 | CCn1ncnc1Nc1nccc(-c2cccc(-c3cc([C@]4(O)CCN(C)C4=O)on3)n2)n1 [Example 276, (R)-3-(3-(6-(2-((1-Ethyl-1H-1,2,4-triazol-5-yl)amino)pyrimidin-4-yl)pyridin-2-yl)isoxazol-5-yl)-3-hydroxy-1-methylpyrrolidin-2-one] | > 500
11 | CN(C)C(=O)Cn1ccc(Nc2nccc(-c3cccc(-c4cc([C@]5(O)CCN(C)C5=O)on4)n3)n2)n1 [Example 277, (R)-2-(3-((4-(6-(5-(3-Hydroxy-1-methyl-2-oxopyrrolidin-3-yl)isoxazol-3-yl)pyridin-2-yl)pyrimidin-2-yl)amino)-1H-pyrazol-1-yl)-N,N-dimethylacetamide] | 50 to 500
12 | Cc1nn(CCN(C)C)c(C)c1Nc1nccc(-c2cccc(-c3cc([C@]4(O)CCN(C)C4=O)on3)n2)n1 [Example 278, (R)-3-(3-(6-(2-((1-(2-(Dimethylamino)ethyl)-3,5-dimethyl-1H-pyrazol-4-yl)amino)pyrimidin-4-yl)pyridin-2-yl)isoxazol-5-yl)-3-hydroxy-1-methylpyrrolidin-2-one] | > 500
13 | CN1CC[C@@](O)(c2cc(-c3cccc(-c4ccnc(Nc5cc(Cl)n(C)n5)n4)n3)no2)C1=O [Example 279, (R)-3-(3-(6-(2-((5-Chloro-1-methyl-1H-pyrazol-3-yl)amino)pyrimidin-4-yl)pyridin-2-yl)isoxazol-5-yl)-3-hydroxy-1-methylpyrrolidin-2-one] | 50 to 500
14 | CN1CC[C@@](O)(c2cc(-c3cccc(-c4ccnc(Nc5cc(CO)n(C)n5)n4)n3)no2)C1=O [Example 280, (R)-3-Hydroxy-3-(3-(6-(2-((5-(hydroxymethyl)-1-methyl-1H-pyrazol-3-yl)amino)pyrimidin-4-yl)pyridin-2-yl)isoxazol-5-yl)-1-methylpyrrolidin-2-one] | 50 to 500
15 | CN1CC[C@@](O)(c2cc(-c3cccc(-c4ccnc(Nc5ccnnc5)n4)n3)no2)C1=O [Example 281, (R)-3-Hydroxy-1-methyl-3-(3-(6-(2-(pyridazin-4-ylamino)pyrimidin-4-yl)pyridin-2-yl)isoxazol-5-yl)pyrrolidin-2-one] | > 500
16 | Cc1cc(Nc2nccc(-c3cccc(-c4cc([C@]5(O)CCN(C)C5=O)on4)n3)n2)nn1C [Example 282, (R)-3-(3-(6-(2-((1,5-Dimethyl-1H-pyrazol-3-yl)amino)pyrimidin-4-yl)pyridin-2-yl)isoxazol-5-yl)-3-hydroxy-1-methylpyrrolidin-2-one] | < 50
17 | Cc1cc(Nc2nccc(-c3cccc(-c4cc([C@]5(O)CCN(C)C5=O)on4)n3)n2)cc(C)n1 [Example 283, (R)-3-(3-(6-(2-((2,6-Dimethylpyridin-4-yl)amino)pyrimidin-4-yl)pyridin-2-yl)isoxazol-5-yl)-3-hydroxy-1-methylpyrrolidin-2-one] | < 50
18 | COc1ccc(Nc2nccc(-c3cccc(-c4cc([C@]5(O)CCN(C)C5=O)on4)n3)n2)cn1 [Example 285, (R)-3-Hydroxy-3-(3-(6-(2-((6-methoxypyridin-3-yl)amino)pyrimidin-4-yl)pyridin-2-yl)isoxazol-5-yl)-1-methylpyrrolidin-2-one] | < 50
19 | C[C@@H]1C[C@@](O)(c2cc(-c3cccc(-c4ccnc(Nc5cnn(C)c5)n4)n3)no2)C(=O)N1C [Example 286, (3R,5R)-3-Hydroxy-1,5-dimethyl-3-(3-(6-(2-((1-methyl-1H-pyrazol-4-yl)amino)pyrimidin-4-yl)pyridin-2-yl)isoxazol-5-yl)pyrrolidin-2-one] | > 500
20 | CN1C(=O)[C@](O)(c2cc(-c3cccc(-c4ccnc(Nc5cnn(C)c5Cl)n4)n3)no2)[C@H]2C[C@H]21 [Example 287, (1R,4R,5S)-4-(3-(6-(2-((5-Chloro-1-methyl-1H-pyrazol-4-yl)amino)pyrimidin-4-yl)pyridin-2-yl)isoxazol-5-yl)-4-hydroxy-2-methyl-2-azabicyclo[3.1.0]hexan-3-one] | 50 to 500
21 | COc1cncc(Nc2nccc(-c3cccc(-c4cc([C@]5(O)CCN(C)C5=O)on4)n3)n2)c1 [Example 288, (R)-3-Hydroxy-3-(3-(6-(2-((5-methoxypyridin-3-yl)amino)pyrimidin-4-yl)pyridin-2-yl)isoxazol-5-yl)-1-methylpyrrolidin-2-one] | < 50
22 | Cc1nn(C)c(C)c1Nc1nccc(-c2cccc(-c3cc([C@]4(O)CCN(C)C4=O)on3)n2)n1 [Example 289, (R)-3-Hydroxy-1-methyl-3-(3-(6-(2-((1,3,5-trimethyl-1H-pyrazol-4-yl)amino)pyrimidin-4-yl)pyridin-2-yl)isoxazol-5-yl)pyrrolidin-2-one] | > 500
23 | CN1CC[C@@](O)(c2cc(-c3cccc(-c4ccnc(Nc5ccncc5C#N)n4)n3)no2)C1=O [Example 290, (R)-4-((4-(6-(5-(3-Hydroxy-1-methyl-2-oxopyrrolidin-3-yl)isoxazol-3-yl)pyridin-2-yl)pyrimidin-2-yl)amino)nicotinonitrile] | 50 to 500
24 | Cc1ncc(Nc2nccc(-c3cccc(-c4cc([C@]5(O)CCN(C)C5=O)on4)n3)n2)cn1 [Example 291, (R)-3-Hydroxy-1-methyl-3-(3-(6-(2-((2-methylpyrimidin-5-yl)amino)pyrimidin-4-yl)pyridin-2-yl)isoxazol-5-yl)pyrrolidin-2-one] | 50 to 500
25 | CN1CC[C@@](O)(c2cc(-c3cccc(-c4ccnc(Nc5cncc(C#N)c5)n4)n3)no2)C1=O [Example 292, (R)-5-((4-(6-(5-(3-Hydroxy-1-methyl-2-oxopyrrolidin-3-yl)isoxazol-3-yl)pyridin-2-yl)pyrimidin-2-yl)amino)nicotinonitrile] | < 50
26 | Cc1cc(Nc2nccc(-c3cccc(-c4cc([C@]5(O)CCN(C)C5=O)on4)n3)n2)c(F)cn1 [Example 293, (R)-3-(3-(6-(2-((5-Fluoro-2-methylpyridin-4-yl)amino)pyrimidin-4-yl)pyridin-2-yl)isoxazol-5-yl)-3-hydroxy-1-methylpyrrolidin-2-one] | < 50
27 | CN1CC[C@@](O)(c2cc(-c3cccc(-c4ccnc(Nc5ccnc(C(F)F)c5)n4)n3)no2)C1=O [Example 294, (R)-3-(3-(6-(2-((2-(Difluoromethyl)pyridin-4-yl)amino)pyrimidin-4-yl)pyridin-2-yl)isoxazol-5-yl)-3-hydroxy-1-methylpyrrolidin-2-one] | < 50
28 | CN1CC[C@@](O)(c2cc(-c3cccc(-c4ccnc(Nc5cc(F)n(C)n5)n4)n3)no2)C1=O [Example 295, (R)-3-(3-(6-(2-((5-Fluoro-1-methyl-1H-pyrazol-3-yl)amino)pyrimidin-4-yl)pyridin-2-yl)isoxazol-5-yl)-3-hydroxy-1-methylpyrrolidin-2-one] | < 50

— patent publication US20250282768A1 (Janssen Pharmaceutica NV, priority 2022, published 2025)
